The values that follow are results of earlier work, collected in patent US20230226079A1, “METHODS AND COMPOSITIONS FOR TREATMENT OF SOLID TUMORS” (Saint Louis University, priority 2022, published 2023).

The conditions of data set [1]: in vivo; cited from earlier work.
The conditions of data set [2]: literature; cited from earlier work.
The subject of the next data set is different models. The conditions noted are these: cited from earlier work.

As for `COc1cc2c(Oc3ccc(NC(=O)C4(C(=O)Nc5ccc(F)cc5)CC4)cc3F)ccnc2cc1OCCCN1CCOCC1` [Foretinib], in data set [1], the adverse side effects result is “fatigue, hypertension, and gastrointestinal toxicities”.
As for `CN1CCN(C2CCN(C(=O)Nc3cc(Oc4ccc(NC(=O)C5(C(=O)Nc6ccc(F)cc6)CC5)c(F)c4)ccn3)CC2)CC1` [Golvatinib], in data set [1], the adverse side effects result was “supraventricular tachycardia, convulsion, and pulmonary embolism”.
Turning to `CO[C@H]1C=C2[C@@H](CC[C@H](O[C@@H]3O[C@H](CO)[C@@H](O)[C@@H](O)[C@H]3O)C2(C)C)[C@]2(C)CC[C@]3(C)[C@@H]([C@H](C)C/C=C/C(C)(C)O)CC[C@@]3(C)[C@H]12` [Karaviloside III], the “Reported Biology” value in data set [2] was “cytotoxic activity”.
Regarding `C[C@H](C/C=C/C(C)(C)O)[C@H]1CC[C@@]2(C)[C@@H]3[C@@H](O[C@@H]4O[C@H](CO)[C@@H](O)[C@H](O)[C@H]4O)C=C4[C@@H](CC[C@H](O)C4(C)C)[C@]3(C=O)CC[C@]12C` [Momordicoside L], the “Reported Biology” value in data set [2] is on record as “Weak α-glucosidase”.
In the case of `C=C(C)/C=C/C[C@@H](C)[C@H]1CC[C@@]2(C)[C@@H]3[C@@H](O)C=C4[C@@H](CC[C@H](O)C4(C)C)[C@]3(C=O)CC[C@]12C` [kuguacin J], the anticancer effect entry in the data set with different models is “showed anticancer effect”.
Take Karayiloside XI: the “Reported Biology” value in data set [2] is listed as “Antidiabetic”.
Consider Sacranoside A, for which, in data set [2], the “Reported Biology” value was “nitric oxide inhibitory”.
For eleostearic acids, the anticancer effect result with different models was “showed anticancer effect”.
